The source of these data is US7691416B2, “Methods of treating vascular disease” (priority 2002, dated 2010).

The structures appear in SMILES notation.

For one data set, the system named is mouse SMC. Description: SMC proliferation, [3H]thymidine incorporation. It is filed as cell-based. An excerpt: (§1) Animals. Male (250-350 g) Brown Norway rats (RT1^n) were used as aortic graft donors and male (250-350 g) Lewis rats (RT11) as recipients. Dawley (400-450 g) rats were used in the balloon injury model. Adult male C57BL/6, C57/S129, p21^−/− and p53^−/− null mice were purchased from Jackson Laboratory (Bar Harbor, Me.). mkk3^(−/−) null mice were generated as described Lu et al. (EMBO. 18:1845-1857 (1999)). The inos^−/− and enos^−/− mice were bred at the University of Pittsburgh. Aortic transplant model. Aortic transplantation was performed as described in Shimizu et al. (Nat. Med. 7:738-741 (2001)). Briefly, 3 to 4 cm of descending aorta was harvested from the donor and implanted between the renal arteries and the aortic bifurcation of the recipient. Both edges of the native abdominal aorta were ligated. Balloon injury model. Balloon angioplasty was carried out as described in Murakami et al. (Atherosclerosis 157:361-368 (2001)). Briefly, a 2 Fr. arterial embolectomy catheter (Baxter, Chicago, Ill.) was inserted into the common carotid artery, and injury was created by inflating the balloon to 5 atmospheres of pressure for 5 minutes. The arteries were flushed and the external carotid artery was ligated, ensuring return of blood flow through the common and internal carotid arteries. Injury of the vessel wall and subsequent pathological analysis was made in a manner that was blinded to the treatment group. CO exposure. CO was delivered to animals as described in Otterbein et al. (Nat. Med. 6:422-428 (2000)). Graft donors and recipients were exposed to CO (250 ppm) for two days before transplantation and for 56 days immediately following transplantation. In the balloon injury model, rats received either no pretreatment or were exposed to CO (250 ppm) for one hour prior to injury. Following surgery rats were housed in room air for two weeks. Cells. Primary mouse and rat smooth muscle cells (SMC) were isolated and cultured as described in Laubach et al. (Proc Natl Acad Sci USA 92:10688-9 (1995)). Mouse SMC isolated from HO-1^−/− mice were obtained as described in Duckers et al. (Nat. Med. 7:693-698 (2001)). Cell treatment and reagents. Guanylate cyclase inhibitor 1H(1,2,4) oxadiazolo(4,3-a)quinoxalin-1 (ODQ; Calbiochem-Novabiochem, San Diego, Calif.; 10-100 μM) and p38 MAPK inhibitor pyridinyl imidazol SB203580 (Calbiochem; 5-20 μM) were dissolved in DMSO. The cGMP analogue 8-bromo-cGMP sodium salt (8-Br-cGMP; Sigma-Aldrich, St. Louis, Mo.; 10-100 μM) and the PKG inhibitor (10-100 μM; Alexis Biochemicals) were dissolved in water. Cell counts and [^3H] thymidine incorporation. Rat and mouse SMC were isolated and cultured as described in Peyton et al. (Blood 99:4443-4448 (2002)). Proliferation assays were carried out as described in Petkova et al. (J Biol. Chem. 276:7932-7936 (2001)). For [^3H] thymidine incorporation studies, cells were serum-starved overnight and then stimulated with 10% serum containing 5 μCi/ml [^3H] thymidine (New England Nuclear, Boston Mass.). [^3H]thymidine incorporation was measured by scintillation spectroscopy and presented as mean counts/min/well. Histomorphometric analysis. Aortic grafts and carotid arteries were harvested at 56 and 14 days respectively. Vessels were fixed, embedded, and serially sectioned (5μ) in toto. Every third slide was stained with Hematoxylin and Eosin (H&E) for histomorphometric analyses. In both models, one or two images per slide at a resolution of 1520×1080 pixels were captured at a magnification of 25× with a Zeiss microscope (Axioskop, Iowa City, Iowa), RT color SPOT (Diagnostic Instrument, Inc., Saint Joseph, Mich.) and Windows NT (Compaq Computer) using Adobe Photoshop version 5.5 software. Areas from eight to ten captured images were calculated using digital imaging software as number of pixels corresponding to those areas. Twenty-four to forty-eight sections from each group were statistically analyzed with SPSS software version 10. Immunostaining and cell population histomorphometric analysis. […]
On the technique in general: Dividing cells build labelled thymidine or BrdU into new DNA.

The test system of another data set is p21Cip1. Description: Western blot of p21Cip1 expression. It counts as cell-based, mouse.
Excerpt: as §1
On the technique in general: A western blot detects proteins with antibodies after separation by electrophoresis.

In a further data set the test system is p38 MAPK. Description: Western blot of phosphorylated p38 MAPK in SMC. It counts as cell-based, mouse.
Excerpt: as §1, with “The cGMP analogue 8-bromo-cGMP sodium salt (8-Br-cGMP; Sigma-Aldrich, St. Louis, Mo.; 10-100 μM) and the PKG inhibitor (10-100 μM; Alexis Biochemicals) were dissolved in water. Cell counts and [^3H] thymidine incorporation. Rat and mouse SMC were isolated and cultured as described in Peyton et al. (Blood 99:4443-4448 (2002)). Proliferation assays were carried out as described in Petkova et al. (J Biol. Chem. 276:7932-7936 (2001)). For [^3H] thymidine incorporation studies, cells were serum-starved overnight and then stimulated with 10% serum containing 5 μCi/ml [^3H] thymidine (New England Nuclear, Boston Mass.).” left out, “Histomorphometric analysis. Aortic grafts and carotid arteries were harvested at 56 and 14 days respectively. Vessels were fixed, embedded, and serially sectioned (5μ) in toto. Every third slide was stained with Hematoxylin and Eosin (H&E) for histomorphometric analyses. In both models, one or two images per slide at a resolution of 1520×1080 pixels were captured at a magnification of 25× with a Zeiss microscope (Axioskop, Iowa City, Iowa), RT color SPOT (Diagnostic Instrument, Inc., Saint Joseph, Mich.) and Windows NT (Compaq Computer) using Adobe Photoshop version 5.5 software.” left out, “10.” for “10. Immunostaining and cell population histomorphometric analysis.”

Data set [1] relates to intimal hyperplasia after balloon injury of the carotid artery. As to the kind of experiment: Balloon injury model of the carotid artery. It is filed as in vivo, rat. Particulars: NO 250 ppm; one hour pre-treatment. An excerpt:
(§2) Animals. Male (250-350 g) Brown Norway rats (RT1^n) were used as aortic graft donors and male (250-350 g) Lewis rats (RT11) as recipients. Dawley (400-450 g) rats were used in the balloon injury model. Adult male C57BL/6, C57/S129, p21^−/− and p53^−/− null mice were purchased from Jackson Laboratory (Bar Harbor, Me.). mkk3^(−/−) null mice were generated as described Lu et al. (EMBO. 18:1845-1857 (1999)). The inos^−/− and enos^−/− mice were bred at the University of Pittsburgh. Aortic transplant model. Aortic transplantation was performed as described in Shimizu et al. (Nat. Med. 7:738-741 (2001)). Briefly, 3 to 4 cm of descending aorta was harvested from the donor and implanted between the renal arteries and the aortic bifurcation of the recipient. Both edges of the native abdominal aorta were ligated. Balloon injury model. Balloon angioplasty was carried out as described in Murakami et al. (Atherosclerosis 157:361-368 (2001)). […] [^3H]thymidine incorporation was measured by scintillation spectroscopy and presented as mean counts/min/well. […] Areas from eight to ten captured images were calculated using digital imaging software as number of pixels corresponding to those areas. Twenty-four to forty-eight sections from each group were statistically analyzed with SPSS software version 10. […]

Data set [2] in a line: Nitric oxide exposure of rats before balloon angioplasty. It is filed as in vivo, rat. The note with it: NO administered at 500 ppm, 1 hour.
Excerpt: as §2

Turning to `O=c1onc2cnc3ccccc3n12` [ODQ, 1H(1,2,4) oxadiazolo(4,3-a)quinoxalin-1, reference compound], the “Ability of CO to suppress SMC proliferation under guanylate cyclase inhibition” value in the data set with mouse SMC (CO 250 ppm plus ODQ) was “impaired”. Further, the “Ability of CO to up-regulate p21Cip1 expression under guanylate cyclase inhibition” value with p21Cip1 (CO plus ODQ) is “impaired”. In the data set with p38 MAPK (CO plus ODQ), the “Activation of p38 MAPK by CO when cGMP generation is blocked” value is “abolished”.

On to `Nc1nc2c(nc(Br)n2[C@@H]2O[C@@H]3COP(=O)([O-])O[C@H]3[C@H]2O)c(=O)[nH]1.[Na+]` [8-Br-cGMP, 8-Bromoguanosine 3′-5′-cyclic monophosphate sodium salt, reference compound], for which the “Suppression of proliferation by the cGMP analogue” value with mouse SMC (SMC derived from p21-/- mice) was “impaired”. Also, the SMC proliferation result in the data set with mouse SMC (wild type SMC exposed to the cGMP analogue) is given as “suppressed”. In the data set with p21Cip1 (SMC exposed to the cGMP analogue, comparably to CO), the p21Cip1 expression result is recorded as “increased”. Further, the “p38 MAPK activation” value with p38 MAPK (SMC exposed to the cGMP analogue) is “activated”.

With `[N]=O` [NO, Nitric Oxide, reference compound], in data set [1], the “Intimal thickening triggered by balloon injury” value is recorded as “did not modulate”. Moreover, the Lethality result in data set [2] is listed as “lethal”.

Regarding `C[S+]([O-])c1ccc(-c2nc(-c3ccncc3)c(-c3ccc(F)cc3)[nH]2)cc1` (centres unmarked) [SB203580, reference compound], the “Anti-proliferative effect of 8Br-cGMP in presence of p38 MAPK inhibitor” value in the data set with mouse SMC (8Br-cGMP plus SB203580) was “abrogated”. In addition, the “Anti-proliferative effect of CO in presence of p38 MAPK inhibitor” value in the data set on mouse SMC (CO 250 ppm plus SB203580) is given as “suppressed”. Besides, the “Effects of CO on proliferation in presence of p38 MAPK inhibitor” value in the data set with mouse SMC (SMC from p21-/- mice, CO 250 ppm plus SB203580) is “did not modulate”. In addition, the “Ability of 8Br-cGMP to up-regulate expression of p21Cip1 in presence of p38 MAPK inhibitor” value in the data set with p21Cip1 (8Br-cGMP plus SB203580) is on record as “suppressed”. Further, the “Ability of CO to up-regulate expression of p21Cip1 in presence of p38 MAPK inhibitor” value with p21Cip1 (CO 250 ppm plus SB203580) was “blocked”.
